US20260325685A1, “Radiopharmaceutical Compositions Targeting Carbonic Anhydrase IX and Uses Thereof” (RayzeBio, Inc., priority 2023, published 2026)

Tests used:
human CA-IX = molecular target: T1, human CA-IX (Homo sapiens, UniProt Q16790); test: Surface Plasmon Resonance (SPR) binding kinetics to recombinant human CA-IX (Biacore 8K, single-cycle kinetics, 1:1 binding model); conditions: Chelated Metal: Lu-175; SPR, 25° C., pH 7.4; read-out: CAIX KD
T1 construct: purchased Acro CA9-H82E3
How it was run: (§1)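 Streptavidin capture, 1200-1800 RU; capture injection 180 s (CA-IX) vs 75 s (CA-XII). Analyte 100-0.39 nM, 9 conc., PBS-P+ pH 7.4 + 1% DMSO, 25° C. On 120 s, off 1200 s; ka/kd after reference subtraction and DMSO correction.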

human CA-XII = molecular target: T2, human CA-XII (Homo sapiens, UniProt O43570); test: Surface Plasmon Resonance (SPR) binding kinetics to recombinant human CA-XII (Biacore 8K, single-cycle kinetics, 1:1 binding model); conditions: Chelated Metal: Lu-175, 25° C., pH 7.4, read-out: CAXII KD
T2 construct: purchased Creative BioMart CA12-261H
T2 sequence (O43570 25-354): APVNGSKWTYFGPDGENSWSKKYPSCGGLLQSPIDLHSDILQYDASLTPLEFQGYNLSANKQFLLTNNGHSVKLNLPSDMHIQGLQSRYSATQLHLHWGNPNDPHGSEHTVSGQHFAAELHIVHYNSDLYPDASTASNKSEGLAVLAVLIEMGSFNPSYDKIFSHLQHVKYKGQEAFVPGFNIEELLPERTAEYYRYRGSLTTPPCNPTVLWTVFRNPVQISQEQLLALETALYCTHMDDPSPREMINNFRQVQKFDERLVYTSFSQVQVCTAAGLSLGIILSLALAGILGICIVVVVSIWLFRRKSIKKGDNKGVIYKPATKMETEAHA
How it was run: as §1

SMILES	Kd (human CA-IX)	Kd (human CA-XII)
CC(CCC(=O)N[C@@H](CC(=O)N[C@@H](CNC(=O)N1CCN(C(=O)CN2CCN(CC(=O)O)CCN(CC(=O)O)CCN(CC(=O)O)CC2)C[C@H]1C(=O)NCCn1cc(C23CC(C(=O)Nc4nnc(S(N)(=O)=O)s4)(C2)C3)nn1)C(=O)O)C(=O)O)(c1ccc(O)cc1)c1ccc(O)cc1.[Lu+3] [Compound 107.55]	< 1 nM	2.5 to 10 nM
CC(CCNC(=O)N1CCC(C(N)=O)(C(=O)NCC(=O)N2CCN(C(=O)CN3CCN(CC(=O)O)CCN(CC(=O)O)CCN(CC(=O)O)CC3)C[C@H]2C(=O)NCCn2cc(C34CC(C(=O)Nc5nnc(S(N)(=O)=O)s5)(C3)C4)nn2)CC1)(c1ccc(O)cc1)c1ccc(O)cc1.[Lu+3] [Compound 107.56]	1 to 2.5 nM	> 10 nM
CC(CCOC(=O)N1CCC(C(N)=O)(C(=O)NCC(=O)N2CCN(C(=O)CN3CCN(CC(=O)O)CCN(CC(=O)O)CCN(CC(=O)O)CC3)C[C@H]2C(=O)NCCn2cc(C34CC(C(=O)Nc5nnc(S(N)(=O)=O)s5)(C3)C4)nn2)CC1)(c1ccc(O)cc1)c1ccc(O)cc1.[Lu+3] [Compound 107.57]	1 to 2.5 nM	> 10 nM
CC(CCCC(=O)N1CCC(C(N)=O)(C(=O)NCC(=O)N2CCN(C(=O)CN3CCN(CC(=O)O)CCN(CC(=O)O)CCN(CC(=O)O)CC3)C[C@H]2C(=O)NCCn2nnc(C34CC(C(=O)Nc5nnc(S(N)(=O)=O)s5)(C3)C4)c2C(=O)O)CC1)(c1ccc(O)cc1)c1ccc(O)cc1.[Lu+3] [Compound 107.58]	< 1 nM	> 10 nM
CC(CCCC(=O)N1CCC(C(N)=O)(C(=O)NCC(=O)N2CCN(C(=O)CN3CCN(CC(=O)O)CCN(CC(=O)O)CCN(CC(=O)O)CC3)C[C@@H]2C(=O)NCCn2nnc(C34CC(C(=O)Nc5nnc(S(N)(=O)=O)s5)(C3)C4)c2C(=O)O)CC1)(c1ccc(O)cc1)c1ccc(O)cc1.[Lu+3] [Compound 107.59]	< 1 nM	> 10 nM
CC(CCC(=O)N[C@@H](CC(=O)N[C@@H](CC(=O)N1CCN(C(=O)CN2CCN(CC(=O)O)CCN(CC(=O)O)CCN(CC(=O)O)CC2)C[C@H]1C(=O)NCCn1nnc(C23CC(C(=O)Nc4nnc(S(N)(=O)=O)s4)(C2)C3)c1C(=O)O)C(=O)O)C(=O)O)(c1ccc(O)cc1)c1ccc(O)cc1.[Lu+3] [Compound 107.60]	< 1 nM	2.5 to 10 nM
CC(CCC(=O)N[C@@H](CC(=O)N[C@@H](CC(=O)N1CCN(C(=O)CN2CCN(CC(=O)O)CCN(CC(=O)O)CCN(CC(=O)O)CC2)C[C@H]1C(=O)NCCn1nnc(C(=O)O)c1C12CC(C(=O)Nc3nnc(S(N)(=O)=O)s3)(C1)C2)C(=O)O)C(=O)O)(c1ccc(O)cc1)c1ccc(O)cc1.[Lu+3] [Compound 107.61]	1 to 2.5 nM	> 10 nM
CC(CCCC(=O)N1CCC(C(N)=O)(C(=O)NCC(=O)N2CCN(C(=O)CN3CCN(CC(=O)O)CCN(CC(=O)O)CCN(CC(=O)O)CC3)C[C@H]2C(=O)NCCn2cc(C34CC(C(=O)Nc5nnc(S(N)(=O)=O)s5)(C3)C4)nn2)CC1)(c1ccc(O)cc1)c1ccc(O)cc1.[Lu+3] [Compound 107]	< 1 nM	> 10 nM
NS(=O)(=O)c1nnc(NC(=O)C23CC(c4cn(CCNC(=O)[C@H]5CN(C(=O)CN6CCN(CC(=O)O)CCN(CC(=O)O)CCN(CC(=O)O)CC6)CCN5C(=O)[C@@H]5COCCN5C(=O)CCc5n[nH]c6ccccc56)nn4)(C2)C3)s1.[Lu+3] [Compound 108.1]	2.5 to 10 nM	> 10 nM
CC(CCCC(=O)N1CCOC[C@H]1C(=O)N[C@@H](CC(=O)N1CCN(C(=O)CN2CCN(CC(=O)O)CCN(CC(=O)O)CCN(CC(=O)O)CC2)C[C@@H]1C(=O)NCCn1cc(C23CC(C(=O)Nc4nnc(S(N)(=O)=O)s4)(C2)C3)nn1)C(=O)O)(c1ccc(O)cc1)c1ccc(O)cc1.[Lu+3] [Compound 108.2]	< 1 nM	> 10 nM
CC(CCC(=O)N1CCNC[C@H]1C(=O)N[C@@H](CC(=O)N1CCN(C(=O)CN2CCN(CC(=O)O)CCN(CC(=O)O)CCN(CC(=O)O)CC2)C[C@@H]1C(=O)NCCn1cc(C23CC(C(=O)Nc4nnc(S(N)(=O)=O)s4)(C2)C3)nn1)C(N)=O)(c1ccc(O)cc1)c1ccc(O)cc1.[Lu+3] [Compound 108.3]	2.5 to 10 nM	> 10 nM
CC(CCC(=O)N1CCOC[C@@H]1C(=O)N[C@@H](CC(=O)N1CCN(C(=O)CN2CCN(CC(=O)O)CCN(CC(=O)O)CCN(CC(=O)O)CC2)C[C@@H]1C(=O)NCCn1cc(C23CC(C(=O)Nc4nnc(S(N)(=O)=O)s4)(C2)C3)nn1)C(=O)O)(c1ccc(O)cc1)c1ccc(O)cc1.[Lu+3] [Compound 108.4]	1 to 2.5 nM	> 10 nM
CC(CCC(=O)N1CCC[C@@H]1C(=O)N[C@@H](CC(=O)N1CCN(C(=O)CN2CCN(CC(=O)O)CCN(CC(=O)O)CCN(CC(=O)O)CC2)C[C@@H]1C(=O)NCCn1cc(C23CC(C(=O)Nc4nnc(S(N)(=O)=O)s4)(C2)C3)nn1)C(=O)O)(c1ccc(O)cc1)c1ccc(O)cc1.[Lu+3] [Compound 108.5]	2.5 to 10 nM	> 10 nM
